Source: patent publication US11878072B2, “Compositions and methods utilizing poly(vinyl alcohol) and/or other polymers that aid particle transport in mucus” (priority 2012, dated 2024)

From the text: An aqueous dispersion containing pyrene and one of the stabilizers/surface-altering agents listed above was stirred with milling media until particle size was reduced below 500 nm (as measured by dynamic light scattering).

Row | Substance | Sample (relative) <Vmean>rel (relative sample velocity) | Sample <Vmean> (ensemble-average velocity)
1 | Tween 80 | 0.17 | 0.94 um/s
2 | Tyloxapol | −0.02 | 0.42 um/s
